From the supplement of paper PMC10307832

Tests used:
Assay in all cases: relative viability (nuclei count vs DMSO), 5 days (fraction); higher = more cells survive
Zebularine + Palbociclib = compound: O=c1ncccn1[C@@H]1O[C@H](CO)[C@@H](O)[C@H]1O [Zebularine] + CC(=O)c1c(C)c2cnc(Nc3ccc(N4CCNCC4)cn3)nc2n(C2CCCC2)c1=O [Palbociclib] (partner 0.5 µM)
How it was run: (§1)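 Relative viability is defined as nuclei in treated wells over nuclei in vehicle wells. Duplicate plates were run and medians reported. Lung cancer cell lines in 1536-well plates were dosed by pin tool one day after seeding, with one drug or with a fixed anchor-drug dose plus five library-drug doses (not always all listed) in √10 steps, and nuclei were counted after 5 days.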

Zebularine + AZD7762 = compound: O=c1ncccn1[C@@H]1O[C@H](CO)[C@@H](O)[C@H]1O [Zebularine] + NC(=O)Nc1cc(-c2cccc(F)c2)sc1C(=O)N[C@H]1CCCNC1 [AZD7762] (partner 0.2 µM)
How it was run: as §1

BI-D1870 + Alpelisib = compound: CC(C)CCN1c2nc(Nc3cc(F)c(O)c(F)c3)ncc2N(C)C(=O)C1C [BI-D1870] + Cc1nc(NC(=O)N2CCC[C@H]2C(N)=O)sc1-c1ccnc(C(C)(C)C(F)(F)F)c1 [Alpelisib] (partner 2 µM)
How it was run: as §1

Zebularine + Bortezomib = compound: O=c1ncccn1[C@@H]1O[C@H](CO)[C@@H](O)[C@H]1O [Zebularine] + CC(C)C[C@H](NC(=O)[C@H](Cc1ccccc1)NC(=O)c1cnccn1)B(O)O [Bortezomib] (partner 0.002 µM)
How it was run: as §1

| Cell Line | relative viability (Zebularine + Palbociclib; first compound 1 µM) | relative viability (Zebularine + Palbociclib; first compound 3.162 µM) | relative viability (Zebularine + Palbociclib; first compound 10 µM) | relative viability (Zebularine + Palbociclib; first compound 31.62 µM) | relative viability (Zebularine + Palbociclib; first compound 100 µM) | relative viability (Zebularine + AZD7762; first compound 1 µM) | relative viability (Zebularine + AZD7762; first compound 3.162 µM) | relative viability (Zebularine + AZD7762; first compound 10 µM) | relative viability (Zebularine + AZD7762; first compound 31.62 µM) | relative viability (Zebularine + AZD7762; first compound 100 µM) | relative viability (BI-D1870 + Alpelisib; first compound 0.04 µM) | relative viability (BI-D1870 + Alpelisib; first compound 0.1265 µM) | relative viability (BI-D1870 + Alpelisib; first compound 0.4 µM) | relative viability (BI-D1870 + Alpelisib; first compound 1.265 µM) | relative viability (BI-D1870 + Alpelisib; first compound 4 µM) | relative viability (Zebularine + Bortezomib; first compound 1 µM) | relative viability (Zebularine + Bortezomib; first compound 3.162 µM) | relative viability (Zebularine + Bortezomib; first compound 10 µM) | relative viability (Zebularine + Bortezomib; first compound 31.62 µM) | relative viability (Zebularine + Bortezomib; first compound 100 µM) |
| --- | --- | --- | --- | --- | --- | --- | --- | --- | --- | --- | --- | --- | --- | --- | --- | --- | --- | --- | --- | --- |
| NCI-H2342 | 0.508 | 0.498 | 0.5 | 0.526 | 0.47 | 0.512 | 0.415 | 0.399 | 0.505 | 0.429 | – | – | – | – | – | – | – | – | – | – |
| HCC-15 | 0.887 | 0.757 | 0.521 | 0.506 | 0.3 | 1.24 | 1.41 | 0.883 | 1.17 | 0.984 | 0.907 | 0.812 | 0.882 | 0.861 | 0.646 | 1.19 | 1.03 | 0.723 | 0.962 | 0.456 |
| A-427 | 0.581 | 0.542 | 0.472 | 0.385 | 0.296 | 0.753 | 0.628 | 0.487 | 0.501 | 0.287 | 1.13 | 1.02 | 0.992 | 1.12 | 1.16 | 1.12 | 0.899 | 0.665 | 0.381 | 0.247 |
| NCI-H2228 | 0.861 | 0.637 | – | 0.552 | 0.216 | – | – | – | – | – | 0.669 | 0.568 | 0.876 | 0.602 | 0.35 | 1.17 | 0.924 | 0.46 | 0.837 | 0.354 |
| NCI-H1734 | 0.408 | 0.334 | 0.322 | 0.3 | 0.239 | 0.638 | 0.575 | 0.366 | 0.495 | 0.306 | 0.778 | 0.619 | 0.683 | 0.75 | 0.597 | 0.988 | 0.86 | 0.463 | 0.379 | 0.346 |
| PC-14 | 0.627 | 0.417 | 0.175 | 0.103 | 0.118 | 0.471 | 0.324 | 0.141 | 0.144 | 0.14 | 1.15 | 0.882 | 0.913 | 0.837 | 0.862 | 1.05 | 0.743 | 0.147 | 0.115 | 0.0976 |
| NCI-H1915 | 0.523 | 0.525 | 0.485 | 0.541 | 0.352 | 0.788 | 0.7 | 0.616 | 0.728 | 0.671 | 1.03 | 1.07 | 1.03 | 1.06 | 1 | 1.11 | 0.913 | 0.433 | 1.09 | 0.97 |
| NCI-H1666 | 0.629 | 0.642 | 0.58 | 0.689 | 0.654 | 0.91 | 0.841 | 0.726 | 0.916 | 0.654 | 0.77 | 0.767 | 0.987 | 1.14 | 0.816 | 0.884 | 0.805 | 0.745 | 0.879 | 0.612 |
| HCC-366 | 0.367 | 0.387 | 0.246 | 0.23 | 0.108 | 0.336 | 0.264 | 0.219 | 0.463 | 0.162 | 0.47 | 0.351 | 0.344 | 0.514 | 0.359 | 1.05 | 0.976 | 0.292 | 0.685 | 0.116 |
| SK-MES-1 | 0.346 | 0.359 | 0.341 | 0.328 | 0.272 | – | – | – | – | – | 0.956 | 0.859 | 0.78 | 0.973 | 0.644 | – | – | – | – | – |
| SW 1573 | 0.451 | 0.435 | – | 0.391 | 0.38 | – | – | – | – | – | 0.934 | 0.64 | 0.723 | 0.794 | 0.661 | 1.13 | 0.896 | 0.78 | 1.07 | 0.584 |
| NCI-H661 | 0.406 | 0.4 | 0.425 | 0.435 | 0.438 | – | – | – | – | – | 0.516 | 0.692 | 0.427 | 0.599 | 0.65 | 0.729 | 0.824 | 0.709 | 0.716 | 0.785 |
| PC-3 [JPC-3] | 0.537 | 0.535 | 0.507 | 0.605 | 0.514 | 0.933 | 0.944 | 0.618 | 0.826 | 0.611 | 1.07 | 0.971 | 1.03 | 1.13 | 1 | 0.912 | 0.772 | 0.464 | 0.729 | 0.591 |
| Calu-6 | – | – | – | – | – | – | – | – | – | – | 1 | 0.843 | 0.951 | 0.7 | 0.644 | 1.04 | 0.85 | 0.914 | 0.77 | 0.306 |
| LC-2-ad | 0.496 | 0.507 | 0.322 | 0.408 | 0.301 | 0.907 | 0.888 | 0.525 | 0.812 | 0.357 | 0.962 | 0.836 | 0.849 | 0.855 | 0.701 | 1.09 | 0.76 | 0.521 | 0.605 | 0.148 |
| CAL-12T | 0.474 | 0.423 | 0.409 | 0.557 | 0.353 | 0.659 | 0.674 | 0.501 | 0.689 | 0.602 | 1.53 | 1.14 | 1.11 | 1.05 | 0.793 | 1.22 | 1.01 | – | 0.68 | 0.483 |
| RERF-LC-KJ | 1.09 | 1.01 | 0.871 | 1.3 | 1.24 | 1.11 | 1 | 0.896 | 1.13 | 0.959 | 0.835 | 0.76 | 0.761 | 0.688 | 0.689 | 1.11 | 0.996 | 0.92 | 1.36 | 1.25 |
| NCI-H1650 | 0.349 | 0.359 | 0.311 | 0.504 | 0.285 | – | – | – | – | – | – | – | – | – | – | 0.226 | 0.191 | – | 0.2 | 0.199 |
| BEN | 0.451 | 0.473 | 0.451 | 0.422 | 0.368 | 0.808 | 0.587 | 0.504 | 0.496 | 0.296 | 1.1 | 0.914 | 1 | 1.13 | 0.884 | 0.938 | 0.714 | 0.345 | 0.372 | 0.265 |
